Read-outs that look alike come from different tables or passages of the source.
Columns and labels:
PI3 kinase alpha = PI3 kinase alpha (Homo sapiens, UniProt P42336); test: PI3K ATP depletion assay (Biological Method 1, Assay 3; KinaseGlo luminescence); assay type: biochemical; settings: ATP depletion assay, read-out: PI3 Kinase Alpha, IC50
Outline: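 Compound in DMSO was mixed with 10 nM PI3 kinase and 5 μg/mL phosphatidylinositol, and the reaction was started with 2 μM ATP. It ran to about 50% ATP depletion and was stopped with KinaseGlo.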

[1] = test system: pSer473 Akt in A2780 cells; test: pSer473 Akt assay to monitor PI3K pathway in A2780 cells (Biological Method 2, MSD); assay type: cell-based; settings: Homo sapiens, inhibition of Akt phosphorylation
Procedure: In this method, an assay for measuring the PI3K-mediated pSer473-Akt status after treatment with representative inhibitor compounds of the invention is described.
A2780 cells were cultured in DMEM supplemented with 10% FBS. L-glutamine, sodium pyruvate, and antibiotics. Cells were plated in the same medium at a density of 15,000 cells per well into 96 well tissue culture plates, with outside wells vacant, and allowed to adhere overnight.
Test compounds supplied in DMSO were diluted further into DMSO at 500 times the desired final concentrations before dilution into culture media to 2 times the final concentrations. Equal volumes of 2× compounds were added to the cells in 96 well plates and incubated at 37° C. for one hour. The media and compounds were then removed, the plates chilled and cells lysed in a lysis buffer (150 mM NaCl, 20 mM Tris pH 7.5, 1 mM EDTA, 1 mM EGTA, 1% Triton X-100) supplemented with phosphatase and protease inhibitors. After thorough mixing, lysates were transferred to both pSer473Akt and total Akt assay plates from Meso Scale Discovery (MSD), and incubated overnight with shaking at 4° C.
The assays were read on a SECTOR Imager 6000 instrument (Meso Scale Discovery). Ratios of the signal from pSer473Akt and total Akt assays were used to correct for any variability and the percent inhibition of pSer473Akt from the total signal seen in cells treated with compound versus DMSO alone was calculated and used to determine EC50 values for each compound.

[2] = test system: A2780 ovarian cancer cells; test: Cellular proliferation in A2780 cells, Cell Titer Glo (Biological Method 4); assay type: cell-based; settings: Homo sapiens
Outline: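 A2780 cells seeded at 1,000/well in DMEM with 10% FBS, at least 2 h before compound, then exposed 72 h at 37 °C, 5% CO2. Viable cells measured by Cell Titer Glo luminescence; EC50 calculated from duplicate conditions.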

[3] = ovarian cancer cell line A2780, Biological Method 4

Sequence of PI3 kinase alpha (P42336 whole entry): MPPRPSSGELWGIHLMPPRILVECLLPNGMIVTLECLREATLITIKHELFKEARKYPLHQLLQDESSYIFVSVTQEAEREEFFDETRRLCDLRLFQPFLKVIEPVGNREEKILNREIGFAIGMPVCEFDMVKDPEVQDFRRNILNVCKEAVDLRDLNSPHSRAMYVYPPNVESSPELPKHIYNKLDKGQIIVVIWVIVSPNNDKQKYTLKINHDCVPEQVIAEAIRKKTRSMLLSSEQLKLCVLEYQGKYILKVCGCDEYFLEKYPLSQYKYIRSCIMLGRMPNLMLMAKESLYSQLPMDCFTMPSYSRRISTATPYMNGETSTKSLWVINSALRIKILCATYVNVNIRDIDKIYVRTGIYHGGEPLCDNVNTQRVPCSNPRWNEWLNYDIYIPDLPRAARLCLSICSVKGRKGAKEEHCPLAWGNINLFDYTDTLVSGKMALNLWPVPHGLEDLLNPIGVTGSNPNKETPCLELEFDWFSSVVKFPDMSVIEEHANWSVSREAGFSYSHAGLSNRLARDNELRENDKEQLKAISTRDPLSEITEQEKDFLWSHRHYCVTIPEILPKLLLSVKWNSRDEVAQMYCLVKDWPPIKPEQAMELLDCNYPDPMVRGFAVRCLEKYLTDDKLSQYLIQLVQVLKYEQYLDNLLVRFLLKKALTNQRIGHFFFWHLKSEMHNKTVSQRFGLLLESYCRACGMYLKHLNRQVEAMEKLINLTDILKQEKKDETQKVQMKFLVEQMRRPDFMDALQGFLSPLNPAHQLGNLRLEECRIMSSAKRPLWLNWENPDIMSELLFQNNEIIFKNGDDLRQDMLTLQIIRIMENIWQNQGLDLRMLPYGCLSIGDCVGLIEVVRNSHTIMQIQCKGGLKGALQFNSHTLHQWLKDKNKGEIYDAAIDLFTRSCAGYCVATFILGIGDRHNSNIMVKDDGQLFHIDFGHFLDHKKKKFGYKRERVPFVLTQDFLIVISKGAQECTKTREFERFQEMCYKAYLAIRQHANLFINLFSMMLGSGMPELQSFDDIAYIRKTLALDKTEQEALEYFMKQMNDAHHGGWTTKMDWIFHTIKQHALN
Sequence of PI3 kinase alpha (P27986 whole entry partner): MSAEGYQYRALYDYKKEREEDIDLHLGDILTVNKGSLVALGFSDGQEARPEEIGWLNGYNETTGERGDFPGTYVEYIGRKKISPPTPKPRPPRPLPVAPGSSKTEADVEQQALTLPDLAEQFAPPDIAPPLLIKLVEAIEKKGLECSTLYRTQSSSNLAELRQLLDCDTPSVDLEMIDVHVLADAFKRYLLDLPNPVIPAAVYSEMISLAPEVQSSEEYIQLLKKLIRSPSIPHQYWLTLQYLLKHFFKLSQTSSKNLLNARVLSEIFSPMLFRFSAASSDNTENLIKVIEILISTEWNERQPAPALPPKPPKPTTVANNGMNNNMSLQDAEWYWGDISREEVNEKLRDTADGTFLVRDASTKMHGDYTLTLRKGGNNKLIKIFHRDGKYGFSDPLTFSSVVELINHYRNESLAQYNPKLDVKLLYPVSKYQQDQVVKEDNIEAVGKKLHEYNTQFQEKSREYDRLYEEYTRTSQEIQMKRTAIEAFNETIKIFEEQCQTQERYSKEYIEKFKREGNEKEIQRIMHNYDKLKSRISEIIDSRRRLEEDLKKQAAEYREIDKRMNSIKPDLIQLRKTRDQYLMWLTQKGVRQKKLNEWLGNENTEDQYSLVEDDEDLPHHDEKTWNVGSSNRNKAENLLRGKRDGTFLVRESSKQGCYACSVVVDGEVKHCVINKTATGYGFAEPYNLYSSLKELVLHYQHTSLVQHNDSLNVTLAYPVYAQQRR

| SMILES | IC50 (PI3 kinase alpha) | EC50 ([1]; A2780 cells) | EC50 ([2]; ovarian cancer cell line A2780) | IC50 (PI3 kinase alpha; Biological Method 1) | EC50 ([1]; A2780, Biological Method 2) | EC50 [2, 3] |
| --- | --- | --- | --- | --- | --- | --- |
| Nc1ccc(-c2cc(Nc3cnc4ccc(OCCN5CCCC5)cc4c3)nc(N3CCOCC3)n2)cn1 [Compound 181] | < 1000 nM | < 1000 nM | < 1000 nM | – | – | – |
| COC(=O)N1CCC[C@@H](Oc2cc(-c3cnc(N)nc3N)nc(N3CCOCC3)n2)C1 [Compound 63] | < 1000 nM | < 1000 nM | < 1000 nM | – | – | – |
| CC(C)C(=O)N1CCC(Oc2cc(-c3cnc(N)nc3C(F)(F)F)nc(N3CCOCC3)n2)CC1 [Compound 106] | < 1000 nM | < 1000 nM | < 1000 nM | – | – | – |
| CCN(CC)Cc1cnc(Nc2cc(-c3cnc(N)nc3C(F)(F)F)nc(N3CCOCC3)n2)s1 [Compound 40] | < 1000 nM | < 1000 nM | < 1000 nM | – | – | – |
| COC(=O)N1CCC(Oc2cc(-c3cnc(N)cc3C(F)(F)F)nc(N3CCOCC3)n2)CC1 [Compound 117] | < 1000 nM | < 1000 nM | < 10000 nM | – | – | – |
| Nc1ncc(-c2cc(OC3CCOCC3)nc(N3CCOCC3)n2)c(=O)[nH]1 [Compound 50] | < 1000 nM | < 1000 nM | < 1000 nM | – | – | – |
| CCc1c(Nc2cnc3ccccc3c2)nc(N2CCOCC2)nc1-c1ccc(N)nc1 [Compound 213] | – | – | – | < 1000 nM | < 10000 nM | < 1000 nM |
| Nc1ccc(-c2cc(Nc3ccncc3)nc(N3CCOCC3)n2)cn1 [Compound 184] | < 1000 nM | < 1000 nM | < 1000 nM | – | – | – |
| CCN(CC)Cc1cnc(Nc2cc(-c3cnc(N)cc3C(F)(F)F)nc(N3CCOCC3)n2)s1 [Compound 12] | < 1000 nM | < 1000 nM | < 10000 nM | – | – | – |
| Nc1ncc(-c2cc(O[C@@H]3CCOC3)nc(N3CCOCC3)n2)c(N)n1 [Compound 108] | < 1000 nM | < 1000 nM | < 1000 nM | – | – | – |
| CC(C)N1CC[C@H](Oc2ccc(Nc3cc(-c4cnc(N)cc4C(F)(F)F)nc(N4CCOCC4)n3)cn2)C1 [Compound 188] | < 1000 nM | < 1000 nM | < 10000 nM | – | – | – |
| Nc1cc(C(F)(F)F)c(-c2cc(OC3CCOCC3)nc(N3CCOCC3)n2)cn1 [Compound 24] | < 1000 nM | < 1000 nM | < 1000 nM | – | – | – |
| Nc1cc(C(F)(F)F)c(-c2cc(N3CCOc4ccccc43)nc(N3CCOCC3)n2)cn1 [Compound 210] | – | – | – | < 1000 nM | < 10000 nM | < 10000 nM |
| Nc1cc(F)c(-c2cc(Nc3cnc4ccccc4c3)nc(N3CCOCC3)n2)cn1 [Compound 4] | < 1000 nM | < 1000 nM | < 1000 nM | – | – | – |
| Nc1ncc(-c2cc(O[C@H]3CCOC3)nc(N3CCOCC3)n2)c(N)n1 [Compound 101] | < 1000 nM | < 1000 nM | < 10000 nM | – | – | – |
| CS(=O)(=O)c1ccc(Nc2cc(-c3cnc(N)cc3C(F)(F)F)nc(N3CCOCC3)n2)cn1 [Compound 128] | < 1000 nM | < 1000 nM | < 10000 nM | – | – | – |
| COc1cc(N)ncc1-c1cc(Nc2cnc3ccccc3c2)nc(N2CCOCC2)n1 [Compound 200] | – | – | – | < 1000 nM | < 1000 nM | < 1000 nM |
| Nc1ncc(-c2cc(Nc3ccncc3)nc(N3CCOCC3)n2)cn1 [Compound 44] | < 1000 nM | < 1000 nM | < 1000 nM | – | – | – |
| Nc1ncc(-c2cc(Nc3ccc4c(c3)OCCO4)nc(N3CCOCC3)n2)c(C(F)(F)F)n1 [Compound 164] | < 1000 nM | < 1000 nM | < 1000 nM | – | – | – |
| CC(=O)N1CCC[C@@H](Oc2cc(-c3cnc(N)nc3N)nc(N3CCOCC3)n2)C1 [Compound 29] | < 1000 nM | < 1000 nM | < 1000 nM | – | – | – |
| Nc1ncc(-c2cc(Nc3ccc4c(c3)OCCO4)nc(N3CCOCC3)n2)cn1 [Compound 67] | < 1000 nM | < 1000 nM | < 1000 nM | – | – | – |

| SMILES | IC50 (PI3 kinase alpha) | EC50 ([1]; A2780 cells) | EC50 ([2]; ovarian cancer cell line A2780) | IC50 (PI3 kinase alpha; Biological Method 1) | EC50 ([1]; A2780, Biological Method 2) | EC50 [2, 3] |
| --- | --- | --- | --- | --- | --- | --- |
| Nc1cc(C(F)(F)F)c(-c2cc(-c3cncc(OC4CCNCC4)c3)nc(N3CCOCC3)n2)cn1 [Compound 88] | < 1000 nM | < 1000 nM | < 10000 nM | – | – | – |
| CC(=O)c1cccc(Nc2cc(-c3ccc(N)nc3)nc(N3CCOCC3)n2)c1 [Compound 174] | < 1000 nM | < 1000 nM | < 10000 nM | – | – | – |
| Nc1ccc(-c2cc(-c3cccnc3NCCO)nc(N3CCOCC3)n2)cn1 [Compound 104] | < 1000 nM | < 1000 nM | < 10000 nM | – | – | – |
| Cc1c(Nc2ncc(C#N)s2)nc(N2CCOCC2)nc1-c1cnc(N)nc1 [Compound 71] | < 1000 nM | < 1000 nM | < 1000 nM | – | – | – |
| COc1ccc(Nc2cc(-c3cnc(N)nc3N)nc(N3CCOCC3)n2)cn1 [Compound 73] | < 1000 nM | < 1000 nM | < 10000 nM | – | – | – |
| Nc1ncc(-c2cc(Nc3ccncc3C(F)(F)F)nc(N3CCOCC3)n2)cn1 [Compound 43] | < 1000 nM | < 1000 nM | < 1000 nM | – | – | – |
| Cc1cc(Nc2cc(-c3cnc(N)nc3N)nc(N3CCOCC3)n2)ccn1 [Compound 53] | < 1000 nM | < 1000 nM | < 1000 nM | – | – | – |
| COC(=O)N1CCC(Oc2cc(-c3cnc(N)nc3N)nc(N3CCOCC3)n2)CC1 [Compound 81] | < 1000 nM | < 1000 nM | < 1000 nM | – | – | – |
| COC(=O)N1CCC(Oc2cc(-c3cnc(N)[nH]c3=O)nc(N3CCOCC3)n2)CC1 [Compound 31] | < 1000 nM | < 1000 nM | < 1000 nM | – | – | – |
| COc1cncc(-c2cc(-c3cnc(N)nc3)nc(N3CCOCC3)n2)c1 [Compound 57] | < 1000 nM | < 1000 nM | < 1000 nM | – | – | – |
| CC(C)OC(=O)N1CCC[C@H](Oc2cc(-c3cnc(N)nc3N)nc(N3CCOCC3)n2)C1 [Compound 167] | < 1000 nM | < 1000 nM | < 10000 nM | – | – | – |
| CS(=O)(=O)c1cc(Nc2cc(-c3cnc(N)cc3C(F)(F)F)nc(N3CCOCC3)n2)ccn1 [Compound 90] | < 1000 nM | < 1000 nM | < 1000 nM | – | – | – |
| CS(=O)(=O)Nc1ncccc1-c1cc(-c2cnc(N)cc2C#N)nc(N2CCOCC2)n1 [Compound 136] | < 1000 nM | < 1000 nM | < 1000 nM | – | – | – |
| Nc1ccc(-c2cc(Nc3cnc4ccccc4c3)nc(N3CCOCC3)n2)c(F)n1 [Compound 169] | < 1000 nM | < 1000 nM | < 1000 nM | – | – | – |
| CS(=O)(=O)c1ccnc(Nc2cc(-c3cnc(N)cc3C(F)(F)F)nc(N3CCOCC3)n2)c1 [Compound 109] | < 1000 nM | < 1000 nM | < 10000 nM | – | – | – |
| Nc1ccc(-c2cc(Nc3cnc4ccccc4c3)nc(N3CCOCC3)n2)c(Cl)n1 [Compound 195] | < 1000 nM | < 1000 nM | < 1000 nM | – | – | – |
| Cc1c(-c2cnc(N)nc2)nc(N2CCOCC2)nc1-c1ccnc(Nc2ncc(-c3ccccc3)s2)c1 [Compound 215] | – | – | – | < 1000 nM | < 10000 nM | < 10000 nM |
| CS(=O)(=O)Nc1ncccc1-c1cc(-c2cnc(N)cc2C(F)(F)F)nc(N2CCOCC2)n1 [Compound 145] | < 1000 nM | < 1000 nM | < 10000 nM | – | – | – |
| CCOc1cc(Nc2cc(-c3ccc(N)nc3)nc(N3CCOCC3)n2)ccn1 [Compound 102] | < 1000 nM | < 1000 nM | < 1000 nM | – | – | – |
| CCOc1cc(Nc2cc(-c3cnc(N)cc3C(F)(F)F)nc(N3CCOCC3)n2)ccn1 [Compound 178] | < 1000 nM | < 1000 nM | < 10000 nM | – | – | – |
| Nc1ncc(-c2cc(Nc3cnc4ccccc4c3)nc(N3CCOCC3)n2)cc1F [Compound 202] | – | – | – | < 1000 nM | < 1000 nM | < 1000 nM |

Source: patent US8217035B2, “Pyrimidine derivatives used as PI-3-kinase inhibitors” (Novartis AG, priority 2006, dated 2012)
